Laboratory results: ChEMBL document CHEMBL6083289, “Deciphering the Therapeutic Potential of Novel Pentyloxyamide-Based Class I, IIb HDAC Inhibitors against Therapy-Resistant Leukemia” (J Med Chem, 2024)

What was measured:
Histone deacetylase 8 = target: T1, Histone deacetylase 8 (Homo sapiens, UniProt Q9BY41)
T1 sequence (Q9BY41 whole entry): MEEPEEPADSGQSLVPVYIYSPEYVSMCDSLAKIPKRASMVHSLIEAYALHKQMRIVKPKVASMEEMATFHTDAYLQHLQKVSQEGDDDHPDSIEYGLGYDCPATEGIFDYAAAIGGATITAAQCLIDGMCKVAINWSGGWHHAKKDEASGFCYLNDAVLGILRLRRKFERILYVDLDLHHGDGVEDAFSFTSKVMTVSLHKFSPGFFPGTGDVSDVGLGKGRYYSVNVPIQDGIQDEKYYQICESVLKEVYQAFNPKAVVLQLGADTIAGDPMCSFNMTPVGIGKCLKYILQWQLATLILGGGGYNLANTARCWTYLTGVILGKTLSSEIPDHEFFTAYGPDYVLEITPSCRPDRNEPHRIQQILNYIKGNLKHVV
Description: Inhibition of human recombinant HDAC8 using RHKAcKAc as fluorogenic substrate incubated for 90 mins by fluorescence based analysis

Histone deacetylase 4 = Histone deacetylase 4 (Homo sapiens, UniProt P56524)
Sequence of Histone deacetylase 4 (P56524 whole entry): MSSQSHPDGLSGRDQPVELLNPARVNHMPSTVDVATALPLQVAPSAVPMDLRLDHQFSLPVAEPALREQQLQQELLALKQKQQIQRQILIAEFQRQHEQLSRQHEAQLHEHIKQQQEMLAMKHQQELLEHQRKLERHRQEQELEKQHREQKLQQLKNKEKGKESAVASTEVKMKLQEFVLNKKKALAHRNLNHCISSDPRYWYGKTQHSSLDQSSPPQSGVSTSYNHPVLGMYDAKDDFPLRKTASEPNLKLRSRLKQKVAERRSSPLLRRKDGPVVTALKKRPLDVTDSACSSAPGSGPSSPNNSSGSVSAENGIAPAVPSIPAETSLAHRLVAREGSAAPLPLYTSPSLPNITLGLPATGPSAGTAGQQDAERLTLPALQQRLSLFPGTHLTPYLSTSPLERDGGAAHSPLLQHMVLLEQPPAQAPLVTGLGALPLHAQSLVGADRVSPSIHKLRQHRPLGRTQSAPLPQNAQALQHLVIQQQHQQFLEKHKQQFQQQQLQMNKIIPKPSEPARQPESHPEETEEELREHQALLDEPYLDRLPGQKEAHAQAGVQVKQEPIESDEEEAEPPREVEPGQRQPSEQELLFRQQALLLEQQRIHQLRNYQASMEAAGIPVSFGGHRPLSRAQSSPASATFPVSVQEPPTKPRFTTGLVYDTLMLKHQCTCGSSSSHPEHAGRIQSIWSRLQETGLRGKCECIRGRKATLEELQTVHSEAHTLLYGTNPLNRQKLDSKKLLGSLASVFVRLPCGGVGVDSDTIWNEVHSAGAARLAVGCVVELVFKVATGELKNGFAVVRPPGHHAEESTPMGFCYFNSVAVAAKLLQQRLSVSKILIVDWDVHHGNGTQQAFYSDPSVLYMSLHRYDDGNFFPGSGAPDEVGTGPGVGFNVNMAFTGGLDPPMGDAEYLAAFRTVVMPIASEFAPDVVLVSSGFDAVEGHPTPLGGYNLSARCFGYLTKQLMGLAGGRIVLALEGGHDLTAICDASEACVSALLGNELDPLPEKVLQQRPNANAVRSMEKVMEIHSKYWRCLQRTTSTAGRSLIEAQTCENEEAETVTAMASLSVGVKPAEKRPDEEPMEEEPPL
Description: Inhibition of human recombinant HDAC4 using Boc-Lys(trifluoroacetyl)-AMC) as fluorogenic substrate incubated for 90 mins by fluorescence based analysis

[1] = target: T2, Protein deacetylase HDAC6 (Homo sapiens, UniProt Q9UBN7); assay: Inhibition of human recombinant HDAC6 using RHKKAc as fluorogenic substrate incubated for 90 mins by fluorescence based analysis
T2 sequence (Q9UBN7 whole entry): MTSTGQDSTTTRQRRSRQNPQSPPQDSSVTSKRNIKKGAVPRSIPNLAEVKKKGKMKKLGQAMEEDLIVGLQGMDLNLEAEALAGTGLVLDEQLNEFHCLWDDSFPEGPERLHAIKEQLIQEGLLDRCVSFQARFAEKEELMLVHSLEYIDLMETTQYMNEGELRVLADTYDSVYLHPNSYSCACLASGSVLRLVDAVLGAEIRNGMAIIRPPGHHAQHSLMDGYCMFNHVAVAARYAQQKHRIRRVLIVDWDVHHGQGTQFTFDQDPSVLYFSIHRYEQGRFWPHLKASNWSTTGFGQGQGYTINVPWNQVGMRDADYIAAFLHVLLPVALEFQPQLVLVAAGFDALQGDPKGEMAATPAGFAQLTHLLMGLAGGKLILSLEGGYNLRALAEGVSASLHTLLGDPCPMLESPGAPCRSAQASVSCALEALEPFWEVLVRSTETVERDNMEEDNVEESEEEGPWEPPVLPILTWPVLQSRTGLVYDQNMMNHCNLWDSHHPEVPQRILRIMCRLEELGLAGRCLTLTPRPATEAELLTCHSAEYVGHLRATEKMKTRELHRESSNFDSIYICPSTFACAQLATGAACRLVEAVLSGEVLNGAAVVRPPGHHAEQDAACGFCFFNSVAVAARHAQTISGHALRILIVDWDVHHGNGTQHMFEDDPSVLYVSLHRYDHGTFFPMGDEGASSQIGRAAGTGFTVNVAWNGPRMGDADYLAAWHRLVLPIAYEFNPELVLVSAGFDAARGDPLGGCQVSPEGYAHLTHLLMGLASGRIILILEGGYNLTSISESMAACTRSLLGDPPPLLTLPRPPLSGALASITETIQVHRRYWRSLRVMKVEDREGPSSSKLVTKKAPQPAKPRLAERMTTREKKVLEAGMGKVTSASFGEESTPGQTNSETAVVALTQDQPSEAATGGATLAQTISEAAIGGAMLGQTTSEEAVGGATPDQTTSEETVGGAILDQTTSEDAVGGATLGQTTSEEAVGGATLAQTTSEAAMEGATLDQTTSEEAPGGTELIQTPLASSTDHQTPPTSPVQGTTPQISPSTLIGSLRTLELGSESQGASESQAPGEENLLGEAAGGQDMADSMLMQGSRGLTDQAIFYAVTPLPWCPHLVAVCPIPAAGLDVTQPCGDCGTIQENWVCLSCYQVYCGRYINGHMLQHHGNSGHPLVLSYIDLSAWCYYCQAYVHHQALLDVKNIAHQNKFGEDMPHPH

Histone deacetylase 11 = target: T3, Histone deacetylase 11 (Homo sapiens, UniProt Q96DB2)
T3 sequence (Q96DB2 whole entry): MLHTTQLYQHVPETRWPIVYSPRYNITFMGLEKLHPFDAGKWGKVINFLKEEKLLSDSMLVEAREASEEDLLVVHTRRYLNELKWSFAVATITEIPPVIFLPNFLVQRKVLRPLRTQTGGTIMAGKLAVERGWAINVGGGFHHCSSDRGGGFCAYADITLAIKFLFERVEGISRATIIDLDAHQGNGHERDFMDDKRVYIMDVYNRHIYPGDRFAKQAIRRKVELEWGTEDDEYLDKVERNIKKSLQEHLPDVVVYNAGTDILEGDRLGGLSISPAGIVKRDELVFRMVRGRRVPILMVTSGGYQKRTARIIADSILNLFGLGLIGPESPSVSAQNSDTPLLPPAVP

[2] = target: Histone deacetylase 3/Nuclear receptor corepressor 2 (HDAC3/NCoR2) (Homo sapiens, UniProt O15379); assay: Inhibition of human recombinant Human HDAC3/NCOR2 using RHKKAc as fluorogenic substrate incubated for 90 mins by fluorescence based analysis; assay type: protein-complex assay
Sequence of Histone deacetylase 3/Nuclear receptor corepressor 2 (HDAC3/NCoR2) (O15379 whole entry): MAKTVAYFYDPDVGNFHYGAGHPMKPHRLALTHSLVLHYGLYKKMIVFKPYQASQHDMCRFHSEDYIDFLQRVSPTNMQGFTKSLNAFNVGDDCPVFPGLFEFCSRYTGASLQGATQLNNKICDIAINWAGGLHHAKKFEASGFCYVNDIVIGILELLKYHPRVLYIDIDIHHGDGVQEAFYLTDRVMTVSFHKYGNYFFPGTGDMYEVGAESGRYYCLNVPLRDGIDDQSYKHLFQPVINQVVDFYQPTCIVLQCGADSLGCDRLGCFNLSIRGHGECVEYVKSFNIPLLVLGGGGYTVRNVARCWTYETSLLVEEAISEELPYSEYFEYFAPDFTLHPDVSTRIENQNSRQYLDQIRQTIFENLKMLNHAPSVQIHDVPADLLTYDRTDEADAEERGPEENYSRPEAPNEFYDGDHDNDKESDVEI
Sequence of Histone deacetylase 3/Nuclear receptor corepressor 2 (HDAC3/NCoR2) (Q9Y618 whole entry, further chain): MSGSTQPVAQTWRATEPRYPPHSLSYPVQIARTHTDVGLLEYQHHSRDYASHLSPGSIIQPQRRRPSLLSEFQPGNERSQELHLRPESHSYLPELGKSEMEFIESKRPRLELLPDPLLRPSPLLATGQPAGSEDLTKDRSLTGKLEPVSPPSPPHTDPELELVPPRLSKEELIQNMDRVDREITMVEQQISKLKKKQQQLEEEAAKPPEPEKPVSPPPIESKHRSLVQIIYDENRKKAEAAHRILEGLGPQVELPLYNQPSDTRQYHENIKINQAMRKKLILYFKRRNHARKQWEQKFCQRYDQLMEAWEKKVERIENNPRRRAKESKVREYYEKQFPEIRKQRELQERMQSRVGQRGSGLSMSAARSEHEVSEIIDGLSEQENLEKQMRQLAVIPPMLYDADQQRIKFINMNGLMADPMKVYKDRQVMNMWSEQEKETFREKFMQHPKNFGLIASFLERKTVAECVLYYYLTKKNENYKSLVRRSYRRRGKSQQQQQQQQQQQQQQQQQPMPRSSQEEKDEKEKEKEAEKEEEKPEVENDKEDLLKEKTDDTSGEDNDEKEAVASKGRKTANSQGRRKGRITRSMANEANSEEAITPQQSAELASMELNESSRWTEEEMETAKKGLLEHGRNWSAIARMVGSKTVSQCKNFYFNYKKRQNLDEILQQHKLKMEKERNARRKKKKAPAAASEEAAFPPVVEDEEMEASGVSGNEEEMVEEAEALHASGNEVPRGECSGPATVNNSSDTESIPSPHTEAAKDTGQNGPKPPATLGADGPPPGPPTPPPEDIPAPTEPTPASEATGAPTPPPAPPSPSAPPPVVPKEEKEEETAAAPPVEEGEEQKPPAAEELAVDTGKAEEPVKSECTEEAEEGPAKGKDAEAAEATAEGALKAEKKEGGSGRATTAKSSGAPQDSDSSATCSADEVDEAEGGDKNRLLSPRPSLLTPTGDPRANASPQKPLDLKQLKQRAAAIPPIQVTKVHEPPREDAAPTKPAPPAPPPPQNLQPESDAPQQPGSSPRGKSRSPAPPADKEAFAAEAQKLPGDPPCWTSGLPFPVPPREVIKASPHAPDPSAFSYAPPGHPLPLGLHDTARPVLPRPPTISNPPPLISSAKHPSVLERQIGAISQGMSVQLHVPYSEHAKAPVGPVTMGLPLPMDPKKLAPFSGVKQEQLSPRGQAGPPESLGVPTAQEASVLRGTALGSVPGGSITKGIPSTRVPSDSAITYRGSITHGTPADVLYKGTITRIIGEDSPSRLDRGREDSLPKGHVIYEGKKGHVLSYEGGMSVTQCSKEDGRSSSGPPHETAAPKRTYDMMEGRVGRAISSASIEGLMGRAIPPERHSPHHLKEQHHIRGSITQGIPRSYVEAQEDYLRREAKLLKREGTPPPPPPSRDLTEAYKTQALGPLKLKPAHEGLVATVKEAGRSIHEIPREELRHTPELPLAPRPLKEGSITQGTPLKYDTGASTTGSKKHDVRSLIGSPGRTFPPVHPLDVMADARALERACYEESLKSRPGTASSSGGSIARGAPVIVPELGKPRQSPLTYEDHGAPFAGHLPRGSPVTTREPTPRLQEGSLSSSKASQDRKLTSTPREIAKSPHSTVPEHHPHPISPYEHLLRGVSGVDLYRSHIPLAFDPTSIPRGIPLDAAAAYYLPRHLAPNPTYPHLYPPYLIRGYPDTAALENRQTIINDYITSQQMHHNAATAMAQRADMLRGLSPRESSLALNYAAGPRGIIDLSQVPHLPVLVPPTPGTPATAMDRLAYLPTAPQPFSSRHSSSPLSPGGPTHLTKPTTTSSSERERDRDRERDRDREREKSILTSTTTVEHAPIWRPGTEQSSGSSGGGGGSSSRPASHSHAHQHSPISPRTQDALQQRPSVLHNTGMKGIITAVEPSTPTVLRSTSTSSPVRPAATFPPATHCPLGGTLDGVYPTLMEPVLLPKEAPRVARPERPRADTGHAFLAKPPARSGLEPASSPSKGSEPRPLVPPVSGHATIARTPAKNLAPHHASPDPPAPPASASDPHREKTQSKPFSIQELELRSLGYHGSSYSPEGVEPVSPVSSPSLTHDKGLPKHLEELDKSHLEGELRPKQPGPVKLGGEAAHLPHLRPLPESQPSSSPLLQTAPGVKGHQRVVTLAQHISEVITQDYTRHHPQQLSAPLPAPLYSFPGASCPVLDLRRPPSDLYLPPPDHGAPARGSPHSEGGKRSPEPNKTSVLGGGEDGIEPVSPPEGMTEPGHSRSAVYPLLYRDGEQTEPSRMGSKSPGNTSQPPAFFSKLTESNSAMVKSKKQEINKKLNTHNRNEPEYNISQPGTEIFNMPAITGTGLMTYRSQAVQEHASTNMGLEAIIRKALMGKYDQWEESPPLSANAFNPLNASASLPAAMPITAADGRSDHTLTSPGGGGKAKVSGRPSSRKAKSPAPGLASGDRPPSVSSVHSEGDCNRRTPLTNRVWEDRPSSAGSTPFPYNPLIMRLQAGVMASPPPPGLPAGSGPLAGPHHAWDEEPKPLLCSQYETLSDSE

Histone deacetylase 1 = Histone deacetylase 1 (Homo sapiens, UniProt Q13547)
Sequence of Histone deacetylase 1 (Q13547 whole entry): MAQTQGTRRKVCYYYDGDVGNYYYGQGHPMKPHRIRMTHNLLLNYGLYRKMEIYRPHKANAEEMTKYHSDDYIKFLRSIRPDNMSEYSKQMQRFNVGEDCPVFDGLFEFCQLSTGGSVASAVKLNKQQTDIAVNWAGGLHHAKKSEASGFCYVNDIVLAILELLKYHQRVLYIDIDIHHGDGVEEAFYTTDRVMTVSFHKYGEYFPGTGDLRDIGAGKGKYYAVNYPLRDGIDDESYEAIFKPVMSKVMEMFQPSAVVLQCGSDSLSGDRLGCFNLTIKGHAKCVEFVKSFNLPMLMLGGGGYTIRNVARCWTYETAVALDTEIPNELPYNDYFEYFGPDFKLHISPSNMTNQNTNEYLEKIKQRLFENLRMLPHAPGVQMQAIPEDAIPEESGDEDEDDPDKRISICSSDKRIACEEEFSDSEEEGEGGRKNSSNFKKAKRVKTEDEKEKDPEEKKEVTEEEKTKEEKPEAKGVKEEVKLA
Description: Inhibition of human recombinant HDAC1 using RHKKAc as fluorogenic substrate incubated for 90 mins by fluorescence based analysis

HPBALL = assay: Antiproliferative activity against human HPBALL cells assessed as inhibition of cell growth incubated for 72 hrs by celltiter-glo assay; assay type: functional, cell-based
HL-60 = assay: cells; details: Homo sapiens, HL-60, 72 h
K562 = assay: cells; assay type: functional, cell-based; details: Homo sapiens, K562, 72 h
[3] = Ratio of drug concentration in human blood to plasma; assay type: ADME, cell-free
[4] = Metabolic stability in human liver microsomes assessed as half life measured upto 60 mins in presence of NADPH regenerating system LC-MS analysis
[5] = Tmax in Balb/c mouse at 50 mg/kg, po measured upto 6 hrs by LC-MS/MS analysis; assay type: ADME, organism-based; details: in vivo
[6] = Half life in mouse at 50 mg/kg, po by LC/MS/MS analysis; details: in vivo
[7] = Half life in Balb/c mouse at 50 mg/kg, po measured upto 6 hrs by LC-MS/MS analysis; details: in vivo
in vivo = details: Balb/c, mouse, po, 50 mg/kg
[8] = AUClast in mouse at 50 mg/kg, po by LC/MS/MS analysis; details: in vivo

IC50 (Histone deacetylase 8)	IC50 (Histone deacetylase 4)	IC50 [1]	Structure (SMILES)	other results
2160 nM	> 100000 nM	26 nM	COc1ccccc1-c1csc(C(=O)NOCCCCCC(=O)NO)n1	
5200 nM	> 100000 nM	26 nM	COc1cccc(-c2csc(C(=O)NOCCCCCC(=O)NO)n2)c1	
5750 nM	> 100000 nM	38 nM	COc1ccc(-c2csc(C(=O)NOCCCCCC(=O)NO)n2)cc1	IC50 (Histone deacetylase 11): 26000 nM; IC50 [2]: 13 nM; IC50 (Histone deacetylase 1): 40 nM
4010 nM	> 100000 nM	75 nM	O=C(CCCCCONC(=O)c1nc(-c2ccccc2)cs1)NO	

The remaining lines, values behind:

Structure (SMILES)	IC50 (Histone deacetylase 8)	IC50 (Histone deacetylase 4)	IC50 [1]	other results
O=C(CCCCCONC(=O)c1nc(-c2ccc(C(F)(F)F)cc2)cs1)NO	4860 nM	> 100000 nM	108 nM	
O=C(CCCCCONC(=O)c1nc(-c2ccc(F)cc2)cs1)NO	6380 nM	> 100000 nM	45 nM	
O=C(CCCCCONC(=O)c1nc(-c2ccc(N3CCCC3)cc2)cs1)NO	4800 nM	> 100000 nM	64 nM	IC50 (Histone deacetylase 11): 36000 nM; IC50 [2]: 48 nM; IC50 (Histone deacetylase 1): 12 nM
O=C(CCCCCONC(=O)c1nc(-c2ccccc2F)cs1)NO	1290 nM	> 100000 nM	51 nM	
O=C(CCCCCONC(=O)c1nc(-c2cc3ccccc3o2)cs1)NO	3680 nM	> 100000 nM	30 nM	
O=C(CCCCCONC(=O)c1nc(-c2cccc(F)c2)cs1)NO	2320 nM	> 100000 nM	47 nM	
Cc1ccc(-c2csc(C(=O)NOCCCCCC(=O)NO)n2)cc1	7010 nM	> 100000 nM	64 nM	
O=C(CCCCCONC(=O)c1nc(-c2ccsc2)cs1)NO	5410 nM	> 100000 nM	49 nM	
O=C(CCCCCONC(=O)c1nc(-c2cccs2)cs1)NO	2510 nM	> 100000 nM	81 nM	
O=C(/C=C/c1cccc(S(=O)(=O)Nc2ccccc2)c1)NO [BELINOSTAT]				IC50 (HPBALL): 269 nM; IC50 (HL-60): 158 nM; IC50 (K562): 218 nM
COc1ccccc1OCCNCC(O)COc1cccc2[nH]c3ccccc3c12 (configuration not stated) [CARVEDILOL]				blood plasma ratio [3]: 0.76
O=C(CCCCCCNC(=O)c1cnc(N(c2ccccc2)c2ccccc2)nc1)NO [RICOLINOSTAT]				IC50 (HPBALL): 2580 nM; IC50 (HL-60): 2190 nM; IC50 (K562): 2930 nM
CC(=O)Nc1ccc(C(=O)Nc2ccccc2N)cc1 [TACEDINALINE]				IC50 (HPBALL): 4700 nM; IC50 (HL-60): 1580 nM; IC50 (K562): 5330 nM
O=C(CCCCCCC(=O)Nc1ccccc1)NO [VORINOSTAT]				half-life at 1 h [4]: 35.9 min; IC50 (HPBALL): 824 nM; Tmax [5]: 4.8 min; half-life [6]: 45 min; half-life at 6 h [7]: 48 min; AUC(0-t) at 6 h (in vivo): 347 ng·h/mL; AUC(0-t) [8]: 619 ng·h/mL
